This note sets out measurements from patent US20080299186A1, “COATINGS FOR APPLYING SUBSTANCES ONTO SUBSTRATE CARRIER” (Schering-Plough Healthcare Products, Inc., priority 2007, published 2008).

Where a name gives a salt, the structure may show the parent alone.

The nature of this series: Phenylephrine HCl stability study: chemical compatibility with film forming polymers and plasticizers, HPLC degradation products. Type of series: physicochemical.

Description: Methods: Chemical compatibility of Phenylephrine HCl with various film forming polymers or polymer blends and plasticizers (Table 2) was conducted. […] Two additional formulations (C and F) were used as controls. Sample C contained Phenylephrine HCl dissolved in water without any additional cellulosic or non-cellulosic polymers. Sample F comprised phenylephrine HCl in the absence of water. Both controls were subjected to the same drying conditions as the other example films prior to analysis.
Aliquots from the bulk coating dispersion equivalent to approximately 10 unit doses of the active were poured into flat, 4-6″ plastic weight boats and allowed to dry overnight for approximately 15-16 hours at 40C under vacuum. The amount per film equivalent to 10 unit doses was chosen for achieving reproducible and reliable analytical results for the Phenylephrine HCl degradants. […] These dried film samples were then stored at 50C in closed amber jars for 14 days. Each film was then analyzed by HPLC for the presence of degradation products. Separation of Phenylephrine HCl degradation products was accomplished on an HPLC using a Prontosil EPS C18, 100×4.6 mm (3 μparticle size) column manufactured by Bischoff Chromatography and using a gradient test method. Detection was by UV at 215 nm. The column was thermostated at 25° C. and an injection volume of 10 μL of sample solution was used. […]

For the compound `CNC[C@H](O)c1cccc(O)c1` [C, Phenylephrine HCl], the “residual water after drying” value (after drying of the film sample) was 10-15%.
As to `CNC[C@H](O)c1cccc(O)c1` [F, Phenylephrine HCl], the “total PE degradation, result in words (compared with controls)” value (stored at 50C in closed amber jars for 14 days) is reported as “no appreciable degradation occurred”.
